Results reported in EP4385495A1, “NANOSYSTEMS FOR THE ENCAPSULATION OF THERAPEUTIC AGENTS” (National Technical University of Athens, priority 2022, dated 2024).

How the values were obtained:
[1] = system: experimental animal model of osteoarthritis (OA); assay: Knee diameter (digital caliper) and gross observations in collagenase-induced osteoarthritis rat model; format: in vivo, Wistar rats; conditions: for Right knee diameter: collagenase-injected knee; for Left knee diameter: untreated control knee
Experimental: (§1) In order to understand the anti-inflammatory and antioxidant potential of the nanoparticles of the invention in vivo an experimental animal model of osteoarthritis (OA) was established. The OA lesions were caused by matrix degradation of articular cartilage using enzymatic means, such as collagenase type-II. Following the induction of osteoarthritis, the studied nanoparticles were administered for 8 weeks in which period the morphological and behavioral changes were measured and finally histological analysis of the articular cartilage samples concluded the in vivo study.
(§2) Healthy adult male Wistar rats (150-200 g) were used for the study, with water and food ad libitum, at a constant temperature of 22°C and controlled lighting (12 h light/12 h dark cycle).
(§3) As far as the dispersion procedure of the injectables is concerned, all the natural compounds were dissolved in saline solution, whereas the studied nanoparticles were mechanically grinded in a mortar and pestle set with saline solution and Tween 20 (2% w/v) and heated at 36 °C before each treatment. There were six treatments administered every 10 days. At the end of the experiment rats were euthanized and both knees were collected for histological analysis.
(§4) Rats were anesthetized with chloral hydrate. The right knee joints of Group I were injected with normal saline solution and served as a control. Animals from the groups II, III, IV, V, VI, VII were injected with collagenase type II (Clostridium histolyticum). Collagenase (125 collagen digestion unit/mg) was dissolved in saline, and it was injected intra-articularly into the right knee joint twice on days 1 and 4 of the experiment (Al-Saffar, F., H. Ganabadi and S. Fakurazi. Collagenase and sodium iodoacetate-induced experimental osteoarthritis model in Sprague dawley rats. Asian J. Sci. Res. 2: 1-13, 2009). The left knees of all animals were left untreated as a control.
(§5) Changes in body weight and knee diameter were measured on the 1st, 4th,11th,21st,31st,41st,51st, 61st, 71st day before every injection. Knee diameter was measured using a digital caliper. […] A change in body weight is also measured as one of the parameters to assess the course of the disease in the OA animal models.

RAW264.7 cells = assay: MTT cell viability assay; format: cell-based, mouse; conditions: for % cell viability: 24h
From the text: The MTT (3-[4,5-dimethylthiazol-2-yl]-2,5 diphenyl tetrazolium bromide) assay is based on the ability of viable cells with active metabolism to convert the yellow MTT to a purple formazan product, which determines mitochondrial activity. The MTT formazan product agglomerates as an insoluble residuum within the cells, which can be solubilized (in this protocol with DMSO) for homogeneous measurement. Thus, any increase or decrease in the number of viable cells can be detected by measuring the formazan concentration reflected in the optical density (OD) measurement at 540 nm with a reference absorption of 720 nm. This assay is broadly used to measure the in vitro cytotoxic effects of drugs on cell lines or primary cells. For the experimental procedure a standard solution of MTT 1mg/mL in PBS was prepared which after filtration ([…] filter (Millipore, Carrigtwohill, Ireland)) was stored in the dark (4-8 °C) until use. In brief, RAW 264.7 cells were seeded in a 96-well plate at a density of 30.000 cells/ in 100 µL of medium per well. […] This was followed by incubation for 24 h, 48 h and 72 h. At the end of the incubation 10 µL of MTT was added to each well followed by incubation for 4 hours, for the formation of the formazan crystals. The formazan crystals were then dissolved by adding DMSO and stirring lightly for 30 min, after which the absorbance was measured in a plate reader at 540 nm with a reference absorbance of 720 nm. […] Table 4: % cell viability after treatment of RAW264.7 cells with the samples

[2] = target: T1, soybean lipoxygenase (LOX) (Glycine max, UniProt P08170); assay: Soybean lipoxygenase inhibition assay in vitro; format: biochemical
T1 sequence (P08170 1-839): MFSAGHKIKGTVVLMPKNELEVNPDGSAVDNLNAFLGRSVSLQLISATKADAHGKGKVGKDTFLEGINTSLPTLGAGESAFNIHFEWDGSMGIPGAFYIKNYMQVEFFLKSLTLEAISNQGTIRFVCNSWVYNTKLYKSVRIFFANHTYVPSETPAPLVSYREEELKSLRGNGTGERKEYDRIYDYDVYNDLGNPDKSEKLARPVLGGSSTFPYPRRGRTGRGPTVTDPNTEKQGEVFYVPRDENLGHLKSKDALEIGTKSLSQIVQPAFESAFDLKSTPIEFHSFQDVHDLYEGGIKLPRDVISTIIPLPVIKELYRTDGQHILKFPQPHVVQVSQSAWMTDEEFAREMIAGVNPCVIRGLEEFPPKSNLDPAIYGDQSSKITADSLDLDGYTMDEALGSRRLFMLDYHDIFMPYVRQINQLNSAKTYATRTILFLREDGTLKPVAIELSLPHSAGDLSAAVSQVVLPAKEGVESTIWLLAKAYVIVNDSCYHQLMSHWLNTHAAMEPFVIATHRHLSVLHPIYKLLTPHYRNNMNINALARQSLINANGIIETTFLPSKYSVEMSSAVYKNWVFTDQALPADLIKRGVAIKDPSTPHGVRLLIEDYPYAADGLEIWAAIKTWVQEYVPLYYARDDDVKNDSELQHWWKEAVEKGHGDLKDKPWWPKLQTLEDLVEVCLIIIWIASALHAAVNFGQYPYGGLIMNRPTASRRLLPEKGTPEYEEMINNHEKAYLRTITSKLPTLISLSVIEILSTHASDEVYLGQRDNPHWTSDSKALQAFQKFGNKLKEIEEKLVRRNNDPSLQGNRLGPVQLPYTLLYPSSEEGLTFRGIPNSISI
Experimental: The soybean lipoxygenase (LOX) test is a representative assay for anti-inflammatory activity since LOX is implicated in the inflammatory cascade. LOXs contain a "non-heme" iron per molecule in the catalytic active site as high-spin Fe^+2 in the native state and high-spin Fe^+3 in the activated state. […] The inhibitory activity of several LOX inhibitors, such as phenolic derivatives, can be attributed to their chelating capacity to Fe^+3. In brief, two reaction mixtures are prepared in UV cuvettes for each sample, the first reaction mixture contains LOX solution (dissolved in Tris buffer, pH 9) and the sample under examination, whereas the second reaction mixture also contained LLA solution (dissolved in 0.9% NaCl). Both reaction mixtures were measured at room temperature at 234 nm. The inhibition of LOX was measured in the presence of the same level of DMSO, which served as control.
Table 2: Anti-inflammatory potential of the samples expressed as % inhibition of LOX

[3] = Body weight in collagenase-induced osteoarthritis rat model; format: in vivo, Wistar rats
Experimental: as §1, §2, §3, §4, §5

[4] = system: experimental animal model of osteoarthritis (OA); assay: Grid-walking test in osteoarthritis rat model; format: in vivo, Wistar rats
Experimental: as §2, §3, §4
(§6) For the evaluation of the effectiveness and time of release of the encapsulated compounds, all animals were subjected to a series of behavioral testing in addition to the measurements of body weight and knees diameter change. The experimental protocol of the present study followed the combination of three different behavioral tests, which are von Frey mechanical allodynia test, grid walking and slope walking test. Behavioral tests are performed in three phases, at the beginning before the start of treatment, in the middle of treatment (approximately 35-40 days) and at the end (after the 70th day).
In this test the rats were allowed to explore freely for 4 minutes in a wire grid and when one of the limbs fell below the grid surface during free walking, the observer counted the number of foot-fault errors (footslips) (Starkey, M. L., Barritt, A. W., Yip, P. K., Davies, M., Hamers, F. P. T., McMahon, S. B., & Bradbury, E. J. (2005). Assessing behavioural function following a pyramidotomy lesion of the corticospinal tract in adult mice. Experimental Neurology, 195(2), 524-539. doi:10.1016/j.expneurol.2005.0).

[5] = system: experimental animal model of osteoarthritis (OA); assay: Slope walking test in osteoarthritis rat model; format: in vivo, Wistar rats
Experimental: as §2
As far as the dispersion procedure of the injectables is concerned, all the natural compounds were dissolved in saline solution, whereas the studied nanoparticles were mechanically grinded in a mortar and pestle set with saline solution and Tween 20 (2% w/v) and heated at 36 °C before each treatment. There were six treatments administered every 10 days.
as §4, §6
Walking on an inclined plane was used for the clinical assessment of motor function in rats after induction of OA. The method consists of placing the animal on an inclined plane and then measuring the time (seconds) needed for the animals to go up the walking tray.

[6] = 40 days (half of experimental protocol)
[7] = 70 days (end of experimental protocol)
[8] = 1st injection CO/saline (before treatment)
[9] = 2nd injection CO/saline (before treatment)

In the case of `C[C@@H]1O[C@@H](O[C@H]2[C@H](Oc3cc(O)c4c(c3)O[C@H](c3ccc(O)cc3)CC4=O)O[C@H](CO)[C@@H](O)[C@@H]2O)[C@H](O)[C@H](O)[C@H]1O` [S1 [NAR], Naringin], the “% Changes in Left knee diameter” value ([1]; 11 days (before treatment)) is reported as 0,26%, the “% Changes in Right knee diameter” value ([1]; 11 days (before treatment)) is reported as 4,14% and the “% Changes in Left knee diameter” value [1, 6] is reported as 0,79%. For the same compound, the “% Changes in Right knee diameter” value [1, 6] was 3,25%, the “% Changes in Left knee diameter” value [1, 7] was 0,84% and the “% Changes in Right knee diameter” value [1, 7] was 2,35%. The Right knee diameter [1, 8] was 0,85 cm, the Right knee diameter ([1]; 1st treatment, 10 mg/kg (S1, ibuprofen i.p.; nanoparticles i.a.)) was 0,8852 cm and the Right knee diameter [1, 9] was 0,882 cm. The Right knee diameter ([1]; 3rd treatment) was 0,9 cm, the Right knee diameter ([1]; 4th treatment) was 0,8776 cm and the Right knee diameter ([1]; 5th treatment) was 0,8712 cm. The Right knee diameter ([1]; 6th treatment) was 0,87 cm, the Right knee diameter ([1]; final) was 0,87 cm and the Left knee diameter ([1]; 1st injection CO/saline) was 0,8572 cm. For the same compound, the Left knee diameter ([1]; 1st treatment) was 0,8594 cm, the Left knee diameter ([1]; 2nd injection CO/saline) was 0,858 cm and the Left knee diameter ([1]; 4th treatment) was 0,864 cm. The Left knee diameter ([1]; final) was 0,8644 cm, the “% cell viability” value (RAW264.7 cells; 25 µM) was 100% and the “% cell viability” value (RAW264.7 cells; 50 µM) was 100%. The “cytotoxicity / cell viability (in words)” value (RAW264.7 cells; lower concentrations) was “full cell viability”, the inhibition at 25 µM ([2]; 25 µM, 24h) was 7.1% and the inhibition at 50 µM ([2]; 50 µM, 24h) was 21.2%. The inhibition at 100 µM ([2]; 100 µM, 24h) was 44.6%, the “LOX inhibition at 48 and 72 h compared with 24 h (in words)” value ([2]; 48 and 72 h) was “no significant difference” and the “Body Weight (BW)” value [3, 8] was 247 g. The “Body Weight (BW)” value ([3]; 1st treatment, 10 mg/kg (S1, ibuprofen i.p.; nanoparticles i.a.), every 10 days) was 239 g, the “Body Weight (BW)” value [3, 9] was 236 g and the “Body Weight (BW)” value ([3]; 2nd treatment, 10 mg/kg (S1, ibuprofen i.p.; nanoparticles i.a.)) was 247 g. The “Body Weight (BW)” value ([3]; 3rd treatment, 10 mg/kg (S1, ibuprofen i.p.; nanoparticles i.a.)) was 276 g, the “Body Weight (BW)” value ([3]; 4th treatment, 10 mg/kg (S1, ibuprofen i.p.; nanoparticles i.a.)) was 294 g and the “Body Weight (BW)” value ([3]; 5th treatment, 10 mg/kg (S1, ibuprofen i.p.; nanoparticles i.a.)) was 317 g. For the same compound, the “Body Weight (BW)” value ([3]; 6th treatment, 10 mg/kg (S1, ibuprofen i.p.; nanoparticles i.a.)) was 326 g, the “% Changes in Body Weight (BW)” value ([3]; 11 days (before treatment)) was -3,2% and the “% Changes in Body Weight (BW)” value [3, 6] was 19,0%. For the same compound, the “% Changes in Body Weight (BW)” value [3, 7] was 34,8%, the “Body Weight (BW)” value ([3]; final, 10 mg/kg (S1, ibuprofen i.p.; nanoparticles i.a.)) was 333 g and the “Foot fault in grid-walk test (4 min)” value ([4]; 11 days left paw) was 3,4. For the same compound, the “Foot fault in grid-walk test (4 min)” value ([4]; 11 days right paw) was 5,6, the “Foot fault in grid-walk test (4 min)” value ([4]; 40 days left paw) was 2 and the “Foot fault in grid-walk test (4 min)” value ([4]; 40 days right paw) was 3. The “Foot fault in grid-walk test (4 min)” value ([4]; 70 days left paw) was 2,8, the “Foot fault in grid-walk test (4 min)” value ([4]; 70 days right paw) was 2,4 and the “Slope Walking” value ([5]; 11 days (before treatment)) was 10,3 sec. The “Slope Walking” value [5, 6] was 8,9 sec and the “Slope Walking” value [5, 7] was 8,6 sec.
